Values of other authors as cited in publication PMC9916978, “Enantioselective Human Serum Albumin Binding of Apremilast: Liquid Chromatographic, Fluorescence and Molecular Docking Study” (International Journal of Molecular Sciences, 2023).

Experiments:
Design in all cases: method as in earlier work
Conditions in all cases: 0.25 to 2.5 μg/mL; cited from earlier work
mouse plasma = test system: mouse plasma
rat plasma = test system: rat plasma
rabbit plasma = test system: rabbit plasma
monkey plasma = test system: monkey plasma
human plasma = test system: human plasma

Structure (SMILES): CCOc1cc([C@@H](CS(C)(=O)=O)N2C(=O)c3cccc(NC(C)=O)c3C2=O)ccc1OC [APR, apremilast]
- overall mean percent bound (mouse plasma): 88.6%
- overall mean percent bound (rat plasma): 90.6%
- overall mean percent bound (rabbit plasma): 80.9%
- overall mean percent bound (monkey plasma): 84.3%
- overall mean percent bound (human plasma): 68.3%
